From patent US20100209513A1, “PHARMACEUTICAL COMPOSITION CONTAINING MICRONIZED PARTICLES OF NAPHTHOQUINONE-BASED COMPOUND” (priority 2007, published 2010) come the findings set out here.

Holding throughout (assay type): in vivo
The nature of test [1]: Body weight change in ob/ob mice, micronized particles of 15,16-dihydrotanshinone (Example 12). The settings on record: ob/ob male mice; 400 mg/kg plus sodium lauryl sulfate in admixture with the feed for 20 days. The protocol:
In order to confirm therapeutic efficacy of micronized particles of 15,16-dihydrotanshinone, an animal experiment was carried out as follows.
(§1) For this purpose, 10-week-old ob/ob male mice (Jackson Lab) as an obese mouse model of type 2 diabetes were purchased from Orient Co., Ltd., Korea and were allowed to acclimate to a new environment of the breeding room for 10 days prior to experiments. Animals were fed a solid feed (P5053, Labdiet) as a laboratory animal chow. The ob/ob male mice were housed and allowed to acclimate to a new environment for 10 days, in a breeding room maintained at a temperature of 22±2° C., humidity of 55±5%, and a 12-h light/dark (L/D) cycle (light from 8:00 am. to 8:00 p.m.). According to a randomized blocks design, the thus-acclimated animals were randomly divided into four groups, each consisting of 7 animals: a control group with no administration of any drug sample, a group with administration of a vehicle (sodium lauryl sulfate) only, a group with administration of 15,16-dihydrotanshinone (before microparticulation, 400 mg/kg) plus sodium lauryl sulfate, and a group with administration of micronized particles of 15,16-dihydrotanshinone (400 mg/kg) plus sodium lauryl sulfate. Each group of animals was given drug samples in admixture with the feed for 20 days. […]

The nature of test [2]: Body weight change in ob/ob mice, effect of sucrose palmitate on micronized cryptotanshinone (Example 11). The settings on record: cryptotanshinone 400 mg/kg in admixture with the feed for 20 days. The method, then: In order to ascertain whether sucrose palmitate which is an emulsifier maintains a particle size of micronized particles of cryptotanshinone, prevents the particle agglomeration or aggregation, and enhances therapeutic efficacy of cryptotanshinone, an animal experiment was carried out as follows.
as §1, with “10-week-old” for “For this purpose, 10-week-old”, “(sucrose palmitate)” for “(sodium lauryl sulfate)”, “cryptotanshinone (400 mg/kg),” for “15,16-dihydrotanshinone (before microparticulation, 400 mg/kg) plus sodium lauryl sulfate,”, “cryptotanshinone” for “micronized particles of 15,16-dihydrotanshinone”, “sucrose palmitate.” for “sodium lauryl sulfate.”

Test [3] is described as follows: Body weight change in ob/ob mice, effect of calcium silicate on micronized cryptotanshinone (Example 9). As to conditions: ob/ob male mice; cryptotanshinone 400 mg/kg in admixture with the feed for 20 days. The method, then: In order to ascertain whether calcium silicate maintains a particle size of micronized particles of cryptotanshinone, prevents the particle agglomeration or aggregation, and enhances therapeutic efficacy of cryptotanshinone, an animal experiment was carried out as follows.
as §1, with “10-week-old” for “For this purpose, 10-week-old”, “(calcium silicate)” for “(sodium lauryl sulfate)”, “cryptotanshinone (400 mg/kg),” for “15,16-dihydrotanshinone (before microparticulation, 400 mg/kg) plus sodium lauryl sulfate,”, “cryptotanshinone” for “micronized particles of 15,16-dihydrotanshinone”, “calcium silicate.” for “sodium lauryl sulfate.”

Test [4] can be described thus: Body weight change in DIO C57BL/6 mice, effect of phosphatidylcholine on micronized cryptotanshinone (Example 8). The settings on record: DIO C57BL/6 male mice; cryptotanshinone 150 mg/kg PO for 40 days. The protocol:
In order to ascertain whether phosphatidylcholine (PC) which is a phospholipid maintains a particle size of micronized particles of cryptotanshinone, prevents the particle agglomeration or aggregation, and enhances therapeutic efficacy of cryptotanshinone, an animal experiment was carried out as follows.
For this purpose, 5-week-old C57BL/6 male mice were purchased from Orient Co., Ltd., Korea and were allowed to acclimate to a new environment of the breeding room for 10 days prior to experiments. A DIO (diet-induced obesity) mouse model was established by supplying to animals high-fat diet for 8 weeks. 13-week-old male mice weighing 40 g were used in experiments. Animals were fed a high-fat feed (45 kcal % fat) (D12451, Research Diets Inc., New Brunswick, N.J.) as a laboratory animal chow. The DIO mice were housed and allowed to acclimate to a new environment for 10 days, in a breeding room maintained at a temperature of 22±2° C., humidity of 55±5%, and a 12-h light/dark (L/D) cycle (light from 8:00 a.m. to 8:00 p.m.). […]

A short description of test [5]: Body weight change in ob/ob mice, effect of chitosan on micronized cryptotanshinone (Example 10). The settings on record: ob/ob male mice; cryptotanshinone 400 mg/kg in admixture with the feed for 20 days. The protocol:
In order to ascertain whether chitosan maintains a particle size of micronized particles of cryptotanshinone, prevents the particle agglomeration or aggregation, and enhances therapeutic efficacy of cryptotanshinone, an animal experiment was carried out as follows.
10-week-old ob/ob male mice (Jackson Lab) as an obese mouse model of type 2 diabetes were purchased from Orient Co., Ltd., Korea and were allowed to acclimate to a new environment of the breeding room for 10 days prior to experiments. Animals were fed a solid feed (P5053, Labdiet) as a laboratory animal chow. The ob/ob male mice were housed and allowed to acclimate to a new environment for 10 days, in a breeding mom maintained at a temperature of 22±2° C., humidity of 55±5%, and a 12-h light/dark (L/D) cycle (light from 8:00 am. to 8:00 p.m.). According to a randomized blocks design, the thus-acclimated animals were randomly divided into four groups, each consisting of 7 animals: a control group with no administration of any drug sample, a group with administration of a vehicle (chitosan) only, a group with administration of cryptotanshinone (400 mg/kg), and a group with administration of cryptotanshinone (400 mg/kg) plus chitosan. Each group of animals was given drug samples in admixture with the feed for 20 days. All animals were allowed ad libitum access to water and standard laboratory chow throughout the study period.

A short description of test [6]: Body weight change in ob/ob mice, intestine-targeted formulation of micronized β-lapachone (Example 14). The settings on record: ob/ob male mice; 200 mg/kg in terms of β-lapachone content PO once a day. The method, then: In order to confirm therapeutic efficacy of β-lapachone {7,8-dihydro-2,2-dimethyl-2H-naphtho(2,3-b)dihydropyran-7,8-dione} when micronized particles of β-lapachone was prepared into a formulation of an intestine-targeted drug delivery system, an animal experiment was carried out as follows.
0.2 g of sodium lauryl sulfate (SLS) and 10 g of β-lapachone were mixed and ground. To the resulting mixture were added approximately an equal amount of a water-soluble polymer (hydroxypropyl methylcellulose) relative to β-lapachone, and vehicles such as Croscarmellose sodium and light anhydrous silicic acid, followed by spray drying. Then, the spray-dried product was added to an ethanol solution containing about 20% by weight of Eudragit S-100 as a pH-sensitive polymer and about 2% by weight of PEG #6,000 as a plasticizer, and the mixture was then spray-dried to prepare intestine-targeted formulations.
In order to confirm the efficacy of each formulation, 200 mg/kg of the formulation in terms of β-lapachone content was administered to ob/ob mice once a day and changes in the body weight (BW) of animals were examined.
For this purpose, 10-week-old ob/ob male mice (Jackson Lab) as an obese mouse model of type 2 diabetes were purchased from Orient Co., Ltd., Korea and were allowed to acclimate to a new environment of the breeding room for 10 days prior to experiments. […]

A short description of test [7]: Body weight change in ob/ob mice, micronized particles of tanshinone IIA (Example 13). The settings on record: ob/ob male mice; 400 mg/kg plus sodium lauryl sulfate in admixture with the feed for 20 days. The method, then:
In order to confirm therapeutic efficacy of micronized particles of tanshinone IIA, an animal experiment was carried out as follows.
For this purpose, 10-week-old ob/ob male mice (Jackson Lab) as an obese mouse model of type 2 diabetes were purchased from Orient Co., Ltd., Korea and were allowed to acclimate to a new environment of the breeding room for 10 days prior to experiments. Animals were fed a solid feed (P5053, Labdiet) as a laboratory animal chow. The ob/ob male mice were housed and allowed to acclimate to a new environment for 10 days, in a breeding room maintained at a temperature of 22±2° C., humidity of 55±5%, and a 12-h light/dark (L/D) cycle (light from 8:00 am. to 8:00 p.m.). According to a randomized blocks design, the thus-acclimated animals were randomly divided into four groups, each consisting of 7 animals: a control group with no administration of any drug sample, a group with administration of a vehicle (sodium lauryl sulfate) only, a group with administration of tanshinone IIA (before microparticulation, 400 mg/kg) plus sodium lauryl sulfate, and a group with administration of micronized particles of tanshinone IIA (400 mg/kg) plus sodium lauryl sulfate. Each group of animals was given drug samples in admixture with the feed for 20 days. All animals were allowed ad libitum access to water and standard laboratory chow throughout the study period.

For `Cc1cccc2c3c(ccc12)C1=C(C(=O)C3=O)C(C)CO1` (stereo not shown) [15,16-dihydrotanshinone], the “Final BW” value in test [1] came out at 55.4 ± 3.1 g.
Consider `C[C@H]1COC2=C1C(=O)C(=O)c1c2ccc2c1CCCC2(C)C` [Cryptotanshinone alone, cryptotanshinone], for which the “Final BW” value is given as 53.2 ± 1.3 g in test [2], 53.2 ± 1.3 g in test [3], 40.2 ± 1.3 g in test [4] and 53.2 ± 1.3 g in test [5].
Take `CC1(C)CCC2=C(O1)c1ccccc1C(=O)C2=O` [Simply finely-divided powder, β-lapachone]: the “Final BW” value in test [6] is recorded as 57.5 ± 1.3 g.
Consider `Cc1coc2c1C(=O)C(=O)c1c-2ccc2c1CCCC2(C)C` [Tanshinone IIA before microparticulation, tanshinone IIA], for which, in test [7], the “Final BW” value is on record as 58.4 ± 3.3 g.
